# Source: PubChem BioAssay (NCI)
# Values joined by “and” are separate entries in the source; they are usually repeats but may differ in a detail not shown here. Equal entries are not always repeated.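 Step 1: Grow cells in 96-well plates. Step 2: Expose to compound for 48 hours at 5 concentrations. Step 3: Interpolate endpoints linearly; if unreached, use highest concentration. Abbreviation: GI50, concentration required for 50% inhibition of growth. At the TGI there is no net growth.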
# Columns and labels:
# Assay in all cases: NCI-60 cell line screen, 48 h
# ACHN renal = tested on: ACHN renal
# COLO 205 colon = tested on: COLO 205 colon
# IGROV1 ovarian = tested on: IGROV1 ovarian
# SK-OV-3 ovarian = tested on: SK-OV-3 ovarian
# TK-10 renal = tested on: TK-10 renal
# MALME-3M melanoma = tested on: MALME-3M melanoma
# M14 melanoma = tested on: M14 melanoma
# SK-MEL-5 melanoma = tested on: SK-MEL-5 melanoma
# U251 CNS = tested on: U251 CNS
# HCT-15 colon = tested on: HCT-15 colon
SMILES,GI50 (ACHN renal),TGI (ACHN renal),GI50 (COLO 205 colon),TGI (COLO 205 colon),GI50 (IGROV1 ovarian),TGI (IGROV1 ovarian),GI50 (SK-OV-3 ovarian),TGI (SK-OV-3 ovarian),GI50 (TK-10 renal),TGI (TK-10 renal),GI50 (MALME-3M melanoma),TGI (MALME-3M melanoma),GI50 (M14 melanoma),TGI (M14 melanoma),GI50 (SK-MEL-5 melanoma),TGI (SK-MEL-5 melanoma),GI50 (U251 CNS),TGI (U251 CNS),GI50 (HCT-15 colon),TGI (HCT-15 colon)
COc1cc2c3c(n(CCCI)c(=O)c2cc1OC)-c1cc2c(cc1C3=O)OCO2,2.14 µM,8.34 µM,9.17 µM,> 100 µM,5.24 µM,> 100 µM,> 100 µM,> 100 µM,14.7 µM,57 µM,7.57 µM,54.6 µM,3.05 µM,> 100 µM,1.81 µM,8.5 µM,1.21 µM,17.5 µM,0.475 µM,> 100 µM
N#Cc1c(N)nc(N2CCOCC2)c(C#N)c1-c1cccnc1,48.7 µM,> 100 µM,36 µM,96.2 µM,17.2 µM,44.8 µM,47.8 µM,99.6 µM,> 100 µM,> 100 µM,37.2 µM,91.4 µM,71.2 µM,> 100 µM,> 100 µM,> 100 µM,> 100 µM,> 100 µM,> 100 µM,> 100 µM
CC(=Nc1ccccc1)C1=C(O)C(Cc2ccccc2)NC1=O (configuration not stated),0.0625 µM,> 100 µM,0.0279 µM,0.0824 µM,0.0651 µM,> 100 µM,0.0537 µM,> 61.8 µM,0.042 µM,> 100 µM,0.018 µM,> 100 µM,0.0248 µM,0.102 µM,0.0446 µM,2.63 µM,0.0373 µM,> 37.2 µM,0.0425 µM,> 48.1 µM
Clc1ccc(C2SCc3nc4ccccc4n32)cc1Cl (configuration not stated),–,29.1 µM,–,38.3 µM,–,38.8 µM,–,36.2 µM,–,25.9 µM,–,42.5 µM,–,27.2 µM,–,21 µM,–,30.8 µM,–,28.4 µM
C=C(Br)N(CC)CC,–,> 100 µM,–,> 100 µM,–,> 100 µM,–,> 100 µM,–,> 100 µM,–,> 100 µM,–,> 100 µM,–,> 100 µM,–,> 100 µM,–,> 100 µM
COc1cc(O)c(C(=O)/C=C/c2ccc(O)cc2)c(O)c1[C@@H]1C[C@H](CCc2ccc(O)cc2)O[C@H](c2ccc(O)cc2)C1,3.31 µM,10.9 µM,2.72 µM,8.44 µM,2.88 µM,16.5 µM,2.82 µM,7.65 µM,4.55 µM,17.1 µM,5.46 µM,28.7 µM,3.48 µM,12.2 µM,3.7 µM,12.8 µM,3.31 µM,11.5 µM,3.43 µM,11.9 µM
NC(=O)c1ccc2nc(-c3ccc(Oc4ccc(Cl)cc4)cc3)[nH]c2c1,13.9 µM and 14.4 µM,75 µM and 30.2 µM,22.3 µM and 20.8 µM,75 µM and 38.9 µM,30.9 µM and 15.9 µM,75 µM and 36.2 µM,17.7 µM and 23.1 µM,75 µM and 48.2 µM,8.61 µM and 16.4 µM,75 µM and 39.9 µM,32.4 µM and 18.2 µM,75 µM and 33.6 µM,19.9 µM and 14.8 µM,75 µM and 29.8 µM,28.7 µM and 7.98 µM,75 µM and 23.7 µM,56.6 µM and 9.01 µM,75 µM and 22.6 µM,23.6 µM and 12.6 µM,75 µM and 31 µM
COc1cc(/C=C/C(=O)c2ccc(NC(=O)CN3CCN(c4cc5c(cc4F)c(=O)c(C(=O)O)cn5C4CC4)CC3)cc2)cc(OC)c1OC,0.692 µM,> 26.6 µM,1.34 µM,8.11 µM,0.671 µM,3.37 µM,2.58 µM,> 29.8 µM,1.8 µM,12.9 µM,2.32 µM,14.5 µM,1.15 µM,13.6 µM,0.871 µM,4.39 µM,0.373 µM,1.47 µM,0.575 µM,> 100 µM
COc1ccc2c(c1)n([O-])c1ccccc1[n+]2=O,16.3 µM and 5.24 µM,41.5 µM and 47.3 µM,–,> 100 µM and 74.7 µM,–,19.1 µM,–,94.8 µM,–,> 100 µM,–,> 100 µM and 69.9 µM,62.1 µM and 7.9 µM,> 100 µM and 21.7 µM,–,98.5 µM and 39.8 µM,–,> 100 µM,–,> 100 µM and 37.3 µM
O=C(Cn1ccnc1[N+](=O)[O-])c1ccc(F)cc1,–,> 100 µM,–,> 100 µM,–,> 100 µM,–,> 100 µM,–,> 100 µM,–,> 100 µM,–,> 100 µM,–,> 100 µM,–,> 100 µM,–,> 100 µM
Cc1ccc(S(=O)(=O)OCC23CCC(CC2)C2CC23)cc1 (configuration not stated),–,> 100 µM,–,> 100 µM,–,> 100 µM,–,> 100 µM,–,> 100 µM,–,> 100 µM,–,> 100 µM,–,75.4 µM,–,> 100 µM,–,> 100 µM
Cn1ccnc1C(=O)/C=C/c1ccccc1,4.53 µM,20.3 µM,5.38 µM,18 µM,2.66 µM,14 µM,4.55 µM,35.9 µM,5.83 µM,19.1 µM,12.3 µM,27.9 µM,3.41 µM,10.4 µM,2.92 µM,12.5 µM,3.21 µM,13.9 µM,2.77 µM,13.8 µM
O=C(CC1(O)C(=O)Nc2c(Cl)cc(Cl)cc21)c1cccc2ccccc12 (configuration not stated),–,30.8 µM,–,31.4 µM,–,36.9 µM,–,30.2 µM,–,27.3 µM,–,35.2 µM,–,30.5 µM,–,28.4 µM,–,29.2 µM,–,31 µM
COc1cc(COC(=O)N(CC(=O)O)c2ccccc2)c([N+](=O)[O-])cc1OC,–,> 100 µM,–,> 100 µM,–,> 100 µM,–,> 100 µM,–,> 100 µM,–,> 100 µM,–,> 100 µM,–,> 100 µM,–,> 100 µM,–,> 100 µM
